These results are taken from US8604055B2, “Substituted benzylamino quinolines as cholesterol ester-transfer protein inhibitors” (Dr. Reddy's Laboratories Ltd., priority 2004, dated 2013).

The target in data set [1] is T1, Recombinant CETP enzyme (Homo sapiens, UniProt P11597).
T1 construct: purchased Cardiovascular Targets
T1 sequence (P11597 18-493): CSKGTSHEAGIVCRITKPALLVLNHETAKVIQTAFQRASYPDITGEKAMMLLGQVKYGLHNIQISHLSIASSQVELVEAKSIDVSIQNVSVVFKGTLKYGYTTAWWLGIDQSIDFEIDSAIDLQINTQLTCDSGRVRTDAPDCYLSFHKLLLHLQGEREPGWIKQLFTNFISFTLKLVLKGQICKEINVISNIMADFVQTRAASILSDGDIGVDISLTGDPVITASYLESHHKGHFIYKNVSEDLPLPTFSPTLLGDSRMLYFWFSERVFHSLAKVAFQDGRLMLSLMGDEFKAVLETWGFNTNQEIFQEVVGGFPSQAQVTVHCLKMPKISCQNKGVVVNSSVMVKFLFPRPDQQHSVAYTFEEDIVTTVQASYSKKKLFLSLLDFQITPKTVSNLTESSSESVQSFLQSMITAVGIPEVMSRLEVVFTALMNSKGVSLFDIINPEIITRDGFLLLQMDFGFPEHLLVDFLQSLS
As to the kind of experiment: In vitro fluorescence-based CETP inhibition assay (BODIPY-CE transfer from donor to acceptor microemulsions). Format: biochemical. Conditions: recombinant CETP 0.14 ng/μl; transfer of fluorescent cholesteryl ester monitored over 2 hours; vs DMSO controls. As to the method: An in vitro fluorescence-based assay to identify CETP inhibitors was developed from modifications of the protocols outlined in Bisgaier et al., J Lipid Res., 34(9): 1625-34 (1993) and Epps et al., Chem Phys Lipids., 77(1): 51-63 (1995). Acceptor and donor lipid microemulsions were prepared according to Bisgaier et al., 1993, except that the buffer was prepared with 0.67 ug/mL human HDL (Calbiochem). Donor microemulsions contained the fluorescent cholesteryl ester analog BODIPY-CE (Molecular Probes), characterized by excitation and emission maxima at 503 nm and 518 nm, respectively. The CETP-mediated transfer of fluorescent cholesteryl ester to acceptor particles was monitored over a 2-hour time period using the FAM filter set (excitation 492 nm, emission 516 nm) in an MX3000P fluorescent plate reader (Stratagene). Recombinant CETP enzyme (Cardiovascular Targets) was used at 0.14 ng/μl, final concentration, to achieve lipid transfer. CETP inhibition by compounds was compared to DMSO controlsand graphed as a percentage of the control CETP activity over 2 hours. The IC50 curves for CETP inhibition were generated from the activity profiles. Active compounds were also tested for CETP inhibition as above, but in the presence of 3% human serum albumin, fraction V (Calbiochem).

pIC50: −log10 of the molar value.

One may read the pIC50 as the negative decadic logarithm of the IC50, by convention in mol/L. A word on the melting point: it is the temperature, or range, at which the solid turns liquid. `Cc1nn(C)c2nc(N(CC3CCC3)CC3CC3)c(CN(Cc3cc(C(F)(F)F)cc(C(F)(F)F)c3)c3nnn(C)n3)cc12` [Example 5, (5-{[(3,5-bis-trifluoromethyl-benzyl)-(2-methyl-2H-tetrazole-5-yl)-amino]-methyl}-1,3-dimethyl-1H-pyrazolo[3,4-b]pyridin-6-yl)-cyclobutylmethyl-cyclopropylmethyl-amine] yielded a melting point of 84 to 85 °C. Moreover, the pIC50 in data set [1] is at least 6.00.
Turning to `CCN(CC(C)(C)C)c1nc2c(cc1CN(Cc1cc(C(F)(F)F)cc(C(F)(F)F)c1)c1nnn(C)n1)c(C)nn2C` [Example 6, (5-{[(3,5-bis-trifluoromethyl-benzyl)-(2-methyl-2H-tetrazole-5-yl)-amino]-methyl}-1,3-dimethyl-1H-pyrazolo[3,4-b]pyridin-6-yl)-(2,2-dimethyl-propyl)-ethyl-amine], the melting point fell in the range of 72 to 73 °C. For the same compound, in data set [1], the pIC50 is at least 6.00.
`CCN(c1nc2c(cc1CN(Cc1cc(C(F)(F)F)cc(C(F)(F)F)c1)c1nnn(C)n1)c(C)nn2C)C1CCCC1` [Example 8, (5-{[(3,5-bis-trifluoromethyl-benzyl)-(2-methyl-2H-tetrazole-5-yl)-amino]-methyl}-1,3-dimethyl-1H-pyrazolo[3,4-b]pyridin-6-yl)-cyclopentyl-ethyl-amine] gave a melting point of 43 to 44 °C. The pIC50 in data set [1] is at least 6.00.
On to `CCN(CC1CCCC1)c1nc2ccccc2cc1CN(Cc1cc(C(F)(F)F)cc(C(F)(F)F)c1)C(N)=S` [Example 62, 1-(3,5-bis-trifluoromethyl-benzyl)-1-[2-(cyclopentylmethyl-ethyl-amino)-quinolin-3-ylmethyl]-thiourea], for which the melting point worked out at 98 °C.
Turning to `Cc1cccc2cc(CN(Cc3cc(C(F)(F)F)cc(C(F)(F)F)c3)c3ncc(N4CCOCC4)cn3)c(N(CC3CC3)CC3CC3)nc12` [Example 106, (3-{[(3,5-bis-trifluoromethyl-benzyl)-(5-morpholin-4-yl-pyrimidin-2-yl)-amino]-methyl}-8-methyl-quinolin-2-yl)-bis-cyclopropylmethyl-amine], the melting point was 123 to 124 °C.
`CCOC(=O)c1c(CN(Cc2cc(C(F)(F)F)cc(C(F)(F)F)c2)c2nnn(C)n2)c2ccccc2n1C` [Example 125, 3-{[(3,5-bis-trifluoromethyl-benzyl)-(2-methyl-2H-tetrazol-5-yl)-amino]-methyl}-1-methyl-1H-indole-2-carboxylic acid ethyl ester]: the melting point worked out at 83 °C.
In the case of `CCOC(=O)c1c(CN(Cc2cc(C(F)(F)F)cc(C(F)(F)F)c2)c2nnn(C)n2)c2ccccc2n1C(=O)C1CCCC1` [Example 127, 3-{[(3,5-bis-trifluoromethyl-benzyl)-(2-methyl-2H-tetrazol-5-yl)-amino]-methyl}-1-cyclopentanecarbonyl-1H-indole-2-carboxylic acid ethyl ester], the pIC50 in data set [1] was at least 6.00.
The compound `CCCSc1nc2c(C)cccc2cc1CN(Cc1cc(C(F)(F)F)cc(C(F)(F)F)c1)C(=O)OCC` [Example 135, (3,5-bis-trifluoromethyl-benzyl)-(8-methyl-2-propylsulfanyl-quinolin-3-ylmethyl)-carbamic acid ethyl ester] gave a melting point of 42 °C.
As to `CCCS(=O)(=O)c1nc2c(C)cccc2cc1CN(Cc1cc(C(F)(F)F)cc(C(F)(F)F)c1)C(=O)OCC` [Example 136, (3,5-bis-trifluoromethyl-benzyl)-[8-methyl-2-(propane-1-sulfonyl)-quinolin-3-ylmethyl]-carbamic acid ethyl ester], the melting point was 98 °C.
Still for that read-out and setting: under `CCC[S+]([O-])c1nc2c(C)cccc2cc1CN(Cc1cc(C(F)(F)F)cc(C(F)(F)F)c1)C(=O)OCC` (stereo not shown) [Example 137, (3,5-bis-trifluoromethyl-benzyl)-[8-methyl-2-(propane-1-sulfinyl)-quinolin-3-ylmethyl]-carbamic acid ethyl ester] stands 86 °C.
